Experimental data: US20240016781A1, “TREATMENT OF KRAS MUTANT CANCERS” (MEI Pharma, Inc., priority 2020, published 2024)
Several values for one entry are separate records, joined by “and”; a condition that tells them apart may be missing. Equal values may be shown once.

How the values were obtained:
Assay in all cases: 72-hour CellTiter-Glo 2.0 growth inhibition screen (single agent, 9x9 combination dose matrix)
Type in all cases: cell-based
NCI-H1792 = tested on: NCI-H1792
Method: (§1) Growth inhibition was determined using a 72-hour CellTiter-Glo®2.0 proliferation assay. Combination format was a 9×9 dose matrix. Six of the 20 cell lines received the original two combinations whilst the remaining 14 cell lines received two additional combinations resulting in four combinations in total. Results have been supplied as both Chalice Analyzer files (.mcc) and raw luminescence data.
(§2) Cell lines that have been preserved in liquid nitrogen are thawed and expanded in growth media (see Appendix I). Once cells have reached expected doubling times, screening begins. Cells are seeded in 25 μl of growth media in black 384-well tissue culture treated plates at 500 cells per well (as noted in Analyzer). Cells are equilibrated in assay plates via centrifugation and placed at 37° C. 5% CO2 for twenty-four hours before treatment. […] Compounds are transferred to assay plates using and Echo acoustic liquid handling system. […] of each compound was added at the appropriate concentration for all combination dose points. Therefore, final assay volume would be 25.05 μl. Assay plates are incubated with compound for 3 days and are then analyzed using CellTiter-Glo 2.0. All data points are collected via automated processes and are subject to quality control and analyzed.
(§3) If T≥V_0:100*(1−(T−V_0)/(V−V_0)) • where T is the signal measure for a test article, V is the untreated/vehicle-treated control measure, and Vo is the untreated/vehicle control measure at time zero (also colloquially referred as TO plates). This formula is derived from the Growth Inhibition calculation used in the National Cancer Institute's NCI-60 high throughput screen. For the purposes of this disclosure, all data analysis was performed in Growth Inhibition (except where noted).
(§4) Inhibition is also provided as a measure of cell viability. […] Inhibition of 100% represents no doubling of cell numbers during the treatment window. Both cytostatic and cytotoxic treatments can yield an Inhibition percentage of 100%. Inhibition percentage is calculated as the following: […]
(§5) The fractional inhibition for each component agent and combination point in the matrix is calculated relative to the median of all untreated/vehicle-treated control wells. The Synergy Score equation integrates the experimentally-observed activity volume at each point in the matrix in excess of a model surface numerically derived from the activity of the component agents using the Loewe model for additivity. Additional terms in the Synergy Score equation (above) are used to normalize for various dilution factors used for individual agents and to allow for comparison of synergy scores across an entire experiment. The inclusion of positive inhibition gating or an Idata multiplier removes noise near the zero-effect level, and biases results for synergistic interactions at that occur at high activity levels. Combinations with higher maximum Growth Inhibition (GI) effects or those which are synergistic at low concentrations will have higher Synergy Scores.
(§6) The CI is a rough estimate of how much drug was needed in combination relative to the single agent doses required to achieve the chosen effect level. CI values in the range of 0.5-0.7 are typical for in vitro measurements of current clinical combinations. The CI error (σCI) is calculated using standard error propagation through the CI calculation based on the isobologram errors. In the Chalice Analyzer, the Best CI is reported from the many CI values calculated for each Icut crossing combination. Among all the measured CI values, the one with the largest single-to-noise level (1−CI)/σCI is reported as the Best CI. Best CI Level is the effect level from which the CI is calculated.

HCC44 = details: HCC44, Lung; growth inhibition (GI), AUC, single agent, 72 h
Method: as §1, §2, §3, §4, §5, §6

KYSE-410 = tested on: KYSE-410
Method: as §1, §2, §3, §4, §5, §6

Panc 04.03 = tested on: Panc 04.03
Method: as §1, §2, §3, §4, §5, §6

TOV-21G = details: TOV-21G, Ovary; growth inhibition (GI), AUC, single agent, 72 h
Method: as §1, §2, §3, §4, §5, §6

Gp2D = tested on: Gp2D
Method: as §1, §2, §3, §4, §5, §6

NCI-H2030 = tested on: NCI-H2030
Method: as §1, §2, §3, §4, §5, §6

SW48 = tested on: SW48
Method: as §1, §2, §3, §4, §5, §6

NCI-H358 = tested on: NCI-H358
Method: as §1, §2, §3, §4, §5, §6

HCC1171 = details: HCC1171, Lung; growth inhibition (GI), AUC, single agent, 72 h
Method: as §1, §2, §3, §4, §5, §6

SW48 KRAS (G12C/+) = tested on: SW48 KRAS (G12C/+)
Method: as §1, §2, §3, §4, §5, §6

HPAF-II = tested on: HPAF-II
Method: as §1, §2, §3, §4, §5, §6

NCI-H1373 = tested on: NCI-H1373
Method: as §1, §2, §3, §4, §5, §6

MIA PaCa-2 = tested on: MIA PaCa-2
Method: as §1, §2, §3, §4, §5, §6

LS-513 = tested on: LS-513
Method: as §1, §2, §3, §4, §5, §6

SW837 = tested on: SW837
Method: as §1, §2, §3, §4, §5, §6

NCI-H23 = tested on: NCI-H23
Method: as §1, §2, §3, §4, §5, §6

AsPC-1 = tested on: AsPC-1
Method: as §1, §2, §3, §4, §5, §6

**Q.** What does the source list for C=C(F)C(=O)N1CCN(c2nc(OC[C@@H]3CCCN3C)nc3c2CCN(c2cccc4cccc(Cl)c24)C3)C[C@@H]1CC#N [MRTX849]?
**A.** HSA volume (NCI-H1792): 4.71 and 3.40; Loewe Volume (NCI-H1792): 5.13 and 3.37; Response Area (NCI-H1792; NCl-H1792, Lung, growth inhibition (GI), AUC, single agent, 72 h): 3.02; Response Area (HCC44): 3.02; Bliss Volume (KYSE-410): 7.25 and 5.69; HSA volume (KYSE-410): 2.25 and 1.80; Loewe Volume (KYSE-410): 6.19 and 5.14; Response Area (KYSE-410; KYSE-410, Esophageal, growth inhibition (GI), AUC, single agent, 72 h): 2.24; HSA volume (Panc 04.03): 0.64 and 0.37; Loewe Volume (Panc 04.03): 3.31 and 1.76; Response Area (Panc 04.03; Panc 04.03, Pancreas, growth inhibition (GI), AUC, single agent, 72 h): 2.20; Response Area (TOV-21G): 2.28; Loewe Volume (Gp2D): 0.46 and 0.37; Response Area (Gp2D; Gp2D, Colorectal, growth inhibition (GI), AUC, single agent, 72 h): 1.86; HSA volume (NCI-H2030): 1.90 and 1.28; Response Area (NCI-H2030; NCl-H2030, Lung, growth inhibition (GI), AUC, single agent, 72 h): 2.65; Bliss Volume (SW48): 9.14 and 4.79; HSA volume (SW48): 3.40 and 2.30; Loewe Volume (SW48): 6.95 and 4.49; Response Area (SW48; SW48, Colorectal, growth inhibition (GI), AUC, single agent, 72 h): 2.78; HSA volume (NCI-H358): 2.90; Response Area (NCI-H358; NCl-H358, Lung, growth inhibition (GI), AUC, single agent, 72 h): 5.85; Response Area (HCC1171): 5.95; HSA volume (SW48 KRAS (G12C/+)): 4.53; Loewe Volume (SW48 KRAS (G12C/+)): 4.75 and 2.96; Response Area (SW48 KRAS (G12C/+); SW48 KRAS (G12C/+), Colorectal, growth inhibition (GI), AUC, single agent, 72 h): 2.88; HSA volume (HPAF-II): 1.34 and 0.93; Response Area (HPAF-II; HPAF-II, Pancreas, growth inhibition (GI), AUC, single agent, 72 h): 2.04; HSA volume (NCI-H1373): 2.06 and 1.03; Response Area (NCI-H1373; NCl-H1373, Lung, growth inhibition (GI), AUC, single agent, 72 h): 4.82; HSA volume (MIA PaCa-2): 5.25 and 2.97; Loewe Volume (MIA PaCa-2): 4.29 and 2.30; HSA volume (LS-513): 0.51 and 0.34; Loewe Volume (LS-513): 0.85 and 0.46; Response Area (LS-513; LS-513, Colorectal, growth inhibition (GI), AUC, single agent, 72 h): 1.56; HSA volume (SW837): 6.87 and 4.50; Loewe Volume (SW837): 5.57; Response Area (SW837; SW837, Colorectal, growth inhibition (GI), AUC, single agent, 72 h): 5.55; HSA volume (NCI-H23): 5.10 and 2.97; Loewe Volume (NCI-H23): 4.80 and 2.46; Response Area (NCI-H23; NCl-H23, Lung, growth inhibition (GI), AUC, single agent, 72 h): 4.15; Loewe Volume (AsPC-1): 0.71 and 0.37; Response Area (AsPC-1; AsPC-1, Pancreas, growth inhibition (GI), AUC, single agent, 72 h): 2.27
